Assay results: ChEMBL document CHEMBL5537180, “Discovery of Novel Aminobutanoic Acid-Based ASCT2 Inhibitors for the Treatment of Non-Small-Cell Lung Cancer” (J Med Chem, 2024)
Active and inactive are the calls of the source. No cut-off for these calls is given here.

How the values were obtained:
[1] = target: T1, Neutral amino acid transporter B(0) (Homo sapiens) (UniProt Q15758); test: Inhibition of ASCT2 in human A549 cells assessed as reduction in [13C]-Gln uptake at 50 uM relative to control; format: cell-based
T1 sequence (whole entry): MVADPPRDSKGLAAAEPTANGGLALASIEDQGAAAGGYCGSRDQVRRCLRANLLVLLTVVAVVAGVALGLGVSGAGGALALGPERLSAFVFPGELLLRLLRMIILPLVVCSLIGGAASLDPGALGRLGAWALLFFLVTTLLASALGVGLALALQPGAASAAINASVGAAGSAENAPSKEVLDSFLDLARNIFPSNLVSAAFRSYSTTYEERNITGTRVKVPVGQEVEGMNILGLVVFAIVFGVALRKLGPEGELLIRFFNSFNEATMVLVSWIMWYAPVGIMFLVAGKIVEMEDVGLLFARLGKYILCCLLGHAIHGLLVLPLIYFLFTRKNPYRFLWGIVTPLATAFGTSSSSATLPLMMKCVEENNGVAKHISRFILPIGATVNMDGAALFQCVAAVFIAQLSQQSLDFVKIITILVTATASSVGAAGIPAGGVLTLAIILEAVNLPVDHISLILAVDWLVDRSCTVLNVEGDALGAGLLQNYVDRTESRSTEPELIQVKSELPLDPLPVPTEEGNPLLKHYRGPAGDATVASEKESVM

A549 [2] = test: Antiproliferative activity against human A549 cells assessed as reduction in cell viability after 72 hrs by MTT assay; format: functional, cell-based; details: A549, 72 h
[3] = target: T2, Neutral amino acid transporter B(0) (Homo sapiens, UniProt Q15758); test: Inhibition of ASCT2 in human A549 cells assessed as reduction in glutamine uptake preincubated for 5 mins followed by substrate addition and measured after 15 mins; format: cell-based
T2 sequence (Q15758 whole entry): T1 sequence (whole entry)

[4] = Metabolic stability in rat liver microsomes assessed as intrinsic clearance; format: ADME, Microsome; details: read-out: CLH
A549 [5] = test: Induction of apoptosis in human A549 cells measured after 24 hrs by annexin-V/PI staining based flow cytometry analysis; format: functional, cell-based; details: dose 5-10 µM
Cell membrane [6] = test: Induction of mitochondrial membrane potential loss in human A549 cells assessed as […] aggregates at 5 uM incubated for 24 hrs by JC-1 staining based flow cytometry analysis (reference value: 93.8%); format: cell membranes
Cell membrane [7] = test: Induction of mitochondrial membrane potential loss in human A549 cells assessed as […] aggregates incubated for 24 hrs by JC-1 staining based flow cytometry analysis; format: cell membranes; details: dose 5-10 µM
A549 [8] = test: Induction of apoptosis in human A549 cells assessed as caspase 3 activation at 5 to 10 uM incubated for 24 hrs by Western blot analysis; format: functional, cell-based; details: dose 5-10 µM
[9] = Cmax in Sprague-Dawley rat at 10 mg/kg, ip incubated for 24 hrs by LC-MS/MS analysis; format: ADME, organism-based; details: in vivo
[10] = Tmax in Sprague-Dawley rat at 10 mg/kg, ip incubated for 24 hrs by LC-MS/MS analysis; format: ADME, organism-based; details: in vivo
[11] = AUC (0 to t) in Sprague-Dawley rat at 10 mg/kg, ip incubated for 24 hrs by LC-MS/MS analysis; format: ADME, organism-based; details: in vivo
[12] = Half life in Sprague-Dawley rat at 10 mg/kg, ip incubated for 24 hrs by LC-MS/MS analysis; format: ADME, organism-based; details: in vivo
[13] = Apparent volume of distribution with respect to the bioavailability in Sprague-Dawley rat at 10 mg/kg, ip incubated for 24 hrs by LC-MS/MS analysis; format: ADME, organism-based; details: in vivo, read-out: Vc/F
A549 [14] = test: Inhibition of AKT/mTORC signalling in human A549 cells assessed as decrease in AKT phosphorylation level at 5 to 10 uM measured after 24 hrs by Western blot analysis; format: cell-based; details: dose 5-10 µM
[15] = Toxicity in BALB/c nude mouse assessed as effect on body weight at 25 to 50 mg/kg, ip measured daily for 3 weeks; format: organism-based; details: in vivo, 504 h, dose 25-50 mg/kg
[16] = Toxicity in BALB/c nude mouse assessed as effect on lung at 25 to 50 mg/kg, ip measured after 3 weeks by H and E staining based analysis; format: organism-based; details: in vivo, 504 h, dose 25-50 mg/kg
[17] = target: T3, Sodium-coupled neutral amino acid symporter 1 (Homo sapiens) (UniProt Q9H2H9); test: Inhibition of SNAT1 (unknown origin) overexpressed in HEK293 cells assessed as reduction in [13C]-Gln uptake preincubated for 5 mins followed by substrate addition and measured after 15 mins; format: cell-based; details: time 20.0 min
T3 sequence (whole entry): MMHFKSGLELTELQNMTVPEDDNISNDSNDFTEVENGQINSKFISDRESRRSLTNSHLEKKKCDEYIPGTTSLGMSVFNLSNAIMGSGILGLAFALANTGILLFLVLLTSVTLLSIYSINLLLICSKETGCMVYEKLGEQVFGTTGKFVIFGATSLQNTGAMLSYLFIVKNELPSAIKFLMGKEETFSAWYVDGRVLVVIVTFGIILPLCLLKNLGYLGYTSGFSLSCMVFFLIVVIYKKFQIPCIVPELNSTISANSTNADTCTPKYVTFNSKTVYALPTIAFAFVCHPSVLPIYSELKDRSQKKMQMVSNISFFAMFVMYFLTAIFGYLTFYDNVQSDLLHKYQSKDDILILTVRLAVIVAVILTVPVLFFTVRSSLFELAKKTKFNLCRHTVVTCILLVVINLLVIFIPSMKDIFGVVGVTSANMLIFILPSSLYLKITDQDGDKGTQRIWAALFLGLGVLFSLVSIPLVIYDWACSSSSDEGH

A549 [18] = test: Inhibition of Gln uptake in human A549 cells assessed as reduction in fumarate level incubated for 24 hrs by LC-MS/MS analysis; format: functional, cell-based
NSCLC [19] = test: Antiproliferative activity against human NSCLC cells cultured as 2862 organoids assessed as cell viability incubated for 96 hrs by Celltiter-glo viability assay; format: functional, cell-based
NSCLC [20] = test: Antiproliferative activity against human NSCLC cells cultured as 2566 organoids assessed as cell viability incubated for 96 hrs by Celltiter-glo viability assay; format: functional, cell-based

Compound	inhibition [1] [%]	IC50 (A549 [2]) [µM]	IC50 [3] [µM]	microsomal CLint [4] [µL/min/mg]	Activity (A549 [5])	Activity (Cell membrane [6]) [%]	Activity (Cell membrane [7])	Activity (A549 [8])	Cmax [9] [ng/mL]	Tmax [10] [h]	AUC(0-t) at 24 h [11] [ng·h/mL]	half-life [12] [h]	Vd/F [13] [L/kg]	inhibition (A549 [14])	Activity [15]	Activity [16]	inhibition [17]	inhibition (A549 [18])	IC50 (NSCLC [19]) [µM]	IC50 (NSCLC [20]) [µM]
CC(C)(C)c1ccc(OCC#Cc2ccccc2)c(CN(CC[C@H](N)C(=O)O)Cc2cc(C(C)(C)C)ccc2OCC#Cc2ccccc2)c1	55.6	5.83	19.2	8.27	Dose-Dependent Effect	76.1	Dose-Dependent Effect	Active	874	5.33	13800	19.4	20	Active	Non-Toxic	Toxic	inactive	Active	2.85	8.08
N[C@@H](CCN(Cc1ccccc1OCC#Cc1ccc(Cl)cc1)Cc1ccccc1OCC#Cc1ccc(Cl)cc1)C(=O)O	90.8	10.3	5.6	37.5	Dose-Dependent Effect	87.8	Dose-Dependent Effect	Active	323	1.17	2670	9.41	49.5	Active	Non-Toxic	Toxic	inactive	Active	5.21	5.09
